Measurements as given in PubChem BioAssay (NCI).
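Exposure lasted 48 hours, with cells grown in 96-well plates and compounds tested at five concentrations. TGI denotes the concentration required for complete inhibition of growth.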

What was measured:
Test in all cases: inhibition of tumour cell growth, NCI panel, 48 h
BT-549 breast = system: BT-549 breast
HT29 colon = system: HT29 colon
CAKI-1 renal = system: CAKI-1 renal
MALME-3M melanoma = system: MALME-3M melanoma
CCRF-CEM leukemia = system: CCRF-CEM leukemia
786-0 renal = system: 786-0 renal
UO-31 renal = system: UO-31 renal
HCT-116 colon = system: HCT-116 colon
NCI-H522 lung = system: NCI-H522 lung
SF-268 CNS = system: SF-268 CNS
SK-OV-3 ovarian = system: SK-OV-3 ovarian
LOX IMVI melanoma = system: LOX IMVI melanoma
HCC-2998 colon = system: HCC-2998 colon
EKVX NSCLC = system: EKVX NSCLC
NCI-H226 lung = system: NCI-H226 lung
MDA-MB-435 = system: MDA-MB-435
HS 578T breast = system: HS 578T breast
PC-3 prostate = system: PC-3 prostate
HCT-15 colon = system: HCT-15 colon
COLO 205 colon = system: COLO 205 colon
IGROV1 ovarian = system: IGROV1 ovarian
SK-MEL-5 melanoma = system: SK-MEL-5 melanoma
RPMI-8226 leukemia = system: RPMI-8226 leukemia
OVCAR-8 ovarian = system: OVCAR-8 ovarian
SW-620 colon = system: SW-620 colon
HL-60(TB) leukemia = system: HL-60(TB) leukemia
HOP-92 NSCLC = system: HOP-92 NSCLC
A549 NSCLC = system: A549 NSCLC
MCF7 breast = system: MCF7 breast
MOLT-4 leukemia = system: MOLT-4 leukemia
ACHN renal = system: ACHN renal
TK-10 renal = system: TK-10 renal
SK-MEL-28 melanoma = system: SK-MEL-28 melanoma
U251 CNS = system: U251 CNS
HOP-62 NSCLC = system: HOP-62 NSCLC
SF-539 CNS = system: SF-539 CNS
SNB-75 CNS = system: SNB-75 CNS
T-47D breast = system: T-47D breast
SF-295 CNS = system: SF-295 CNS
DU-145 prostate = system: DU-145 prostate
OVCAR-4 ovarian = system: OVCAR-4 ovarian
NCI/ADR-RES ovarian = system: NCI/ADR-RES ovarian
KM12 colon = system: KM12 colon
UACC-257 melanoma = system: UACC-257 melanoma
MDA-MB-231 breast = system: MDA-MB-231 breast
RXF 393 renal = system: RXF 393 renal
MDA-N = system: MDA-N
NCI-H23 lung = system: NCI-H23 lung
OVCAR-5 ovarian = system: OVCAR-5 ovarian
SR leukemia = system: SR leukemia
A498 renal = system: A498 renal
NCI-H460 lung = system: NCI-H460 lung
OVCAR-3 ovarian = system: OVCAR-3 ovarian
UACC-62 melanoma = system: UACC-62 melanoma
K-562 leukemia = system: K-562 leukemia
SK-MEL-2 melanoma = system: SK-MEL-2 melanoma
SNB-19 CNS = system: SNB-19 CNS
M14 melanoma = system: M14 melanoma
SN12C renal = system: SN12C renal

## COc1cc(OC)cc(Oc2nc3ccc(C(F)(F)F)cc3nc2-c2ccccc2)c1
BT-549 breast
  TGI: > 100 µM
HT29 colon
  TGI: > 100 µM
CAKI-1 renal
  TGI: > 100 µM
MALME-3M melanoma
  TGI: > 100 µM
CCRF-CEM leukemia
  TGI: > 100 µM
786-0 renal
  TGI: > 100 µM
UO-31 renal
  TGI: > 100 µM
HCT-116 colon
  TGI: > 100 µM
NCI-H522 lung
  TGI: > 100 µM
SF-268 CNS
  TGI: > 100 µM
SK-OV-3 ovarian
  TGI: > 100 µM
LOX IMVI melanoma
  TGI: > 100 µM
HCC-2998 colon
  TGI: > 100 µM
EKVX NSCLC
  TGI: > 100 µM
NCI-H226 lung
  TGI: > 100 µM
MDA-MB-435
  TGI: > 100 µM
HS 578T breast
  TGI: > 100 µM
PC-3 prostate
  TGI: > 100 µM
HCT-15 colon
  TGI: > 100 µM
COLO 205 colon
  TGI: > 100 µM
IGROV1 ovarian
  TGI: > 100 µM
SK-MEL-5 melanoma
  TGI: > 100 µM
RPMI-8226 leukemia
  TGI: > 100 µM
OVCAR-8 ovarian
  TGI: > 100 µM
SW-620 colon
  TGI: > 100 µM
HL-60(TB) leukemia
  TGI: > 100 µM
HOP-92 NSCLC
  TGI: > 100 µM
A549 NSCLC
  TGI: > 100 µM
MCF7 breast
  TGI: > 100 µM
MOLT-4 leukemia
  TGI: > 100 µM
ACHN renal
  TGI: > 100 µM
TK-10 renal
  TGI: > 100 µM
SK-MEL-28 melanoma
  TGI: > 100 µM
U251 CNS
  TGI: > 100 µM
HOP-62 NSCLC
  TGI: > 100 µM
SF-539 CNS
  TGI: > 100 µM
SNB-75 CNS
  TGI: > 100 µM
T-47D breast
  TGI: > 100 µM
SF-295 CNS
  TGI: > 100 µM
DU-145 prostate
  TGI: > 100 µM
OVCAR-4 ovarian
  TGI: > 100 µM
NCI/ADR-RES ovarian
  TGI: > 100 µM
KM12 colon
  TGI: > 100 µM
UACC-257 melanoma
  TGI: > 100 µM
MDA-MB-231 breast
  TGI: > 100 µM
RXF 393 renal
  TGI: > 100 µM
MDA-N
  TGI: > 100 µM
NCI-H23 lung
  TGI: > 100 µM
OVCAR-5 ovarian
  TGI: > 100 µM
SR leukemia
  TGI: > 100 µM
A498 renal
  TGI: > 100 µM
NCI-H460 lung
  TGI: > 100 µM
OVCAR-3 ovarian
  TGI: > 100 µM
UACC-62 melanoma
  TGI: > 100 µM
K-562 leukemia
  TGI: > 100 µM

## FC(F)(F)c1ccc2c(c1)nc(Cc1ccc(Cl)cc1)n2CC1CCCN2CCCCC12 (stereo not given)
BT-549 breast
  TGI: 23.7 µM
HT29 colon
  TGI: 11.6 µM
SK-MEL-2 melanoma
  TGI: 26.4 µM
CAKI-1 renal
  TGI: 30.4 µM
MALME-3M melanoma
  TGI: 3.8 µM
786-0 renal
  TGI: 20.7 µM
UO-31 renal
  TGI: 0.0985 µM
HCT-116 colon
  TGI: 19.9 µM
NCI-H522 lung
  TGI: 16.9 µM
SF-268 CNS
  TGI: 18 µM
SK-OV-3 ovarian
  TGI: 24.1 µM
LOX IMVI melanoma
  TGI: 7.85 µM
HCC-2998 colon
  TGI: 10.5 µM
EKVX NSCLC
  TGI: 23.2 µM
NCI-H226 lung
  TGI: 24.2 µM
MDA-MB-435
  TGI: 24.4 µM
HS 578T breast
  TGI: 6.9 µM
PC-3 prostate
  TGI: 20.9 µM
HCT-15 colon
  TGI: 20.9 µM
COLO 205 colon
  TGI: 16 µM
IGROV1 ovarian
  TGI: 22 µM
SK-MEL-5 melanoma
  TGI: 15.2 µM
OVCAR-8 ovarian
  TGI: 23.4 µM
SW-620 colon
  TGI: 27.4 µM
HL-60(TB) leukemia
  TGI: 6.13 µM
HOP-92 NSCLC
  TGI: 20.4 µM
SNB-19 CNS
  TGI: 26.9 µM
A549 NSCLC
  TGI: 25.1 µM
MCF7 breast
  TGI: 21.8 µM
MOLT-4 leukemia
  TGI: 10.4 µM
ACHN renal
  TGI: 23.6 µM
TK-10 renal
  TGI: 24.7 µM
M14 melanoma
  TGI: 4.91 µM
SK-MEL-28 melanoma
  TGI: 6.38 µM
U251 CNS
  TGI: 20.5 µM
HOP-62 NSCLC
  TGI: 27.7 µM
SNB-75 CNS
  TGI: 14 µM
T-47D breast
  TGI: 19.6 µM
SF-295 CNS
  TGI: 22.3 µM
DU-145 prostate
  TGI: 21.6 µM
OVCAR-4 ovarian
  TGI: 36.1 µM
NCI/ADR-RES ovarian
  TGI: 20.8 µM
KM12 colon
  TGI: 21.4 µM
UACC-257 melanoma
  TGI: 8.41 µM
MDA-MB-231 breast
  TGI: 13.1 µM
RXF 393 renal
  TGI: 22 µM
MDA-N
  TGI: 13.7 µM
OVCAR-5 ovarian
  TGI: 25 µM
SR leukemia
  TGI: 7.13 µM
A498 renal
  TGI: 27.1 µM
NCI-H460 lung
  TGI: 20.7 µM
OVCAR-3 ovarian
  TGI: 15.2 µM
SN12C renal
  TGI: 21.4 µM
UACC-62 melanoma
  TGI: 10.1 µM
K-562 leukemia
  TGI: 19.4 µM
